Legend:
Experiment in all cases: MIC, sole activity (no second agent)
Format in all cases: cell-based
Conditions in all cases: Table 6A; no second agent; different supplier of Cation-adjusted MHB
Pseudomonas aeruginosa = test system: Pseudomonas aeruginosa
Procedure, shortened: (§1)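 Up to four strains per species were tested in cation-adjusted Mueller-Hinton broth, with inoculum made by direct colony suspension from 18-24 hour Mueller-Hinton agar plates, adjusted to 0.5 McFarland. Duplicates differing by under 2-fold gave the lower value; greater spread voided the run. Values are relative to Polymyxin B.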

Escherichia coli = test system: Escherichia coli
Procedure, shortened: as §1

Acinetobacter baumannii = test system: Acinetobacter baumannii
Procedure, shortened: as §1

Klebsiella pneumoniae = test system: Klebsiella pneumoniae
Procedure, shortened: as §1

Row | Substance | MIC P. aeruginosa ATCC 27853 (Pseudomonas aeruginosa) [micrograms/mL] | MIC P. aeruginosa CCUG 59347 (Pseudomonas aeruginosa) [micrograms/mL] | MIC E. coli ATCC25922 (Escherichia coli) [micrograms/mL] | MIC E. coli NCTC 13441 (Escherichia coli) [micrograms/mL] | MIC A. baumannii ATCC BAA-747 (Acinetobacter baumannii) [micrograms/mL] | MIC A. baumannii NCTC 13424 (Acinetobacter baumannii) [micrograms/mL] | MIC K. pneumoniae ATCC 4352 (Klebsiella pneumoniae) [micrograms/mL] | MIC K. pneumoniae ATCC BAA-2146 (Klebsiella pneumoniae) [micrograms/mL]
1 | D-Pro polymyxin B nonapeptide [Example A36] | 1 | 4 | 2 | 2 | 8 | 8 | 1 | 8
2 | L-Pro polymyxin B nonapeptide [Example A37] | 2 | >8 | >8 | >8 | >8 | >8 | >8 | >8
3 | Piperidine-1-ylethanoyl polymyxin B nonapeptide [Example A2] | 2 | 4 | 4 | >8 | >8 | >8 | 8 | –
4 | Piperidine-2-carbonyl polymyxin B nonapeptide. Isomer 1 [Example A25] | 2 | 4 | >8 | >8 | >8 | 8 | 8 | >8
5 | Piperidine-2-carbonyl polymyxin B nonapeptide. Isomer 2 [Example A26] | 1 | 2 | 2 | 2 | 2 | 1 | 0.5 | 1
6 | [2-(RS)-(2-Hydroxy-2- cyclohexyl)ethanoyl]-L-Thr- L-Dap-polymyxin B heptapeptide [Example A4] | 2 | 2 | 1 | 4 | >8 | >8 | 2 | –
7 | [3(R,S)-3-Amino-3- cyclohexanepropanoyl]-Gly- polymyxin B nonapeptide [Example A7] | 1 | >8 | >8 | >8 | 4 | 8 | >8 | –
8 | [3(R,S)-3-Amino-3- cyclohexanepropanoyl]-L- Arg- polymyxin B nonapeptide [Example A23] | 8 | >8 | >8 | >8 | 2 | 4 | >8 | >8
9 | [3(R,S)-3-Amino-3- cyclohexanepropanoyl]-L- Dab-L-Thr-L-Dap polymyxin B heptapeptide [Example A10] | 0.25 | 0.25 | 1 | 1 | 2 | 2 | 0.5 | –
10 | [3(R,S)-3-Amino-3- cyclohexanepropanoyl]-L- His- polymyxin B nonapeptide [Example A19] | 1 | 2 | 8 | 4 | 4 | 4 | 8 | 8
11 | [3(R,S)-3-Amino-3- cyclohexanepropanoyl]-L- Phe- polymyxin B nonapeptide isomer 1 [Example A20] | >8 | >8 | >8 | >8 | >8 | >8 | >8 | >8
12 | [3(R,S)-3-Amino-3- cyclohexanepropanoyl]-L- Phe- polymyxin B nonapeptide isomer 2 [Example A21] | >8 | >8 | >8 | >8 | >8 | >8 | >8 | >8
13 | [3(R,S)-3-Amino-3- cyclohexanepropanoyl]-L- Pro- polymyxin B nonapeptide isomer 1 [Example A8] | 2 | 4 | >8 | >8 | >8 | >8 | >8 | –
14 | [3(R,S)-3-Amino-3- cyclohexanepropanoyl]-L- Pro- polymyxin B nonapeptide isomer 2 [Example A9] | 2 | >8 | >8 | >8 | >8 | >8 | >8 | –
15 | [3(R,S)-3-Amino-3- cyclohexanepropanoyl]-L- Ser- polymyxin B nonapeptide [Example A11] | 1 | 2 | >8 | 8 | 4 | 4 | 8 | –
16 | [3(R,S)-3-Amino-3- cyclohexanepropanoyl]-L- Tyr- polymyxin B nonapeptide [Example A27] | – | 4 | >8 | >8 | 8 | >8 | >8 | >8
17 | [3(R,S)-3-Amino-3- cyclohexanepropanoyl]-[4R- 4-hydroxy-L-Pro]-polymyxin B nonapeptide [Example A12] | 2 | 4 | >8 | >8 | 8 | 8 | >8 | –

Reference: patent US10407467B2, “Polymyxin derivatives and their use in combination therapy together with different antibiotics” (priority 2013, dated 2019)
